The values below come from patent US10064814B2, “Use of spider venoms for skin whitening/depigmenting and composition comprising spider venoms molecules or synthetic analogs” (priority 2012, dated 2018).

Structures are written as SMILES. Entries after “also recorded” stand apart in the source; their conditions may differ. Read-outs that look alike come from different tables or passages of the source.

Data set [1] deals with mushroom tyrosinase (DOPA oxidase activity) (Agaricus bisporus, UniProt C7FF04). Briefly: DOPA oxidase inhibiting activity by spectrophotometry (mushroom tyrosinase assay). The data set is classed as biochemical. As to conditions: FIG. 12. The procedure: (§1) Mushroom (Agaricus bisporus) tyrosinase (SIGMA-ALDRICH, T3824) has both DHICA oxidase and DOPA oxidase activity ([…] et al, Pigment Cell Res., vol. 12(2), p: 118-25, 1999).
The effect of different spider venoms on the DOPA oxidase activity was measured spectrophotometrically. The DOPA oxidase activity was determined using L-DOPA as substrate at 0.2 mM. The amount of DOPA chrome (red pigment) formed was measured against blank at 475 nm. The percentage of DOPA oxidase inhibition was obtained from: Inhibition percentage=[…]
With: • A: Absorbance at 475 nm of the reaction medium+inhibitor sample solution with enzyme • B: Absorbance at 475 nm of the reaction medium+inhibitor sample solution without enzyme (blank) • C: Absorbance at 475 nm of the reaction medium enzyme without inhibitor sample solution • D: Absorbance at 475 nm of the reaction medium without both enzyme and inhibitor sample solution […]
For the DOPA activity assay: 500 μL of the L-DOPA solution at 0.4 mM is mixed with different volumes according to the different natural inhibitors at 10 mg/mL, and 5 μL of the mushroom tyrosinase solution (added last to initiate the enzymatic reaction and must be kept in ice). […] The absorbance is measured at 475 nm every minute for 15 min using a UV-VIS spectrophotometer BIOMATE 5®. […]

Data set [2] has as its system B16F10 cells. Briefly: Measurement of melanin content in B16F10 melanoma cells (melanogenesis assay). The data set is classed as cell-based, murine. As to conditions: for IC50: read-out: IC50 melanogenesis (melanin released in the medium). The procedure: (§2) B16F10 were obtained from the American Type Culture Collection (ATCC CRL-6475, Manassas, Va., USA). Cells were cultured in Dulbecco's Modified Eagle Medium (DMEM) supplemented by 10% heat-inactivated foetal bovine serum (FBS, LONZA ltd., Basel, Switzerland) and penicillin/streptomycin (50 μg/ml) in a humidified atmosphere containing 5% CO2 at 37° C.
Determination of the extracellular melanin is considered as an index of melanogenesis. B16F10 cells were cultured in 24-well plate (5.10^4 cells/well) in a phenol red free medium and stimulated with 100 nM of α-MSH. […] To quantify the amount of melanin released in the medium, the absorbance of 200 μl of supernatant was read at 405 nm. The values were normalized by the measurement of total protein level present in each well.
Cells were washed with PBS1X and dissolved in 200 μl of NaOH 1N for 1 h at 60° C. The lysate was then centrifuged and the protein content determined by the Folin Lowry method, using the DC protein Assay kit from BIO-RAD (Marnes-la-Coquette, France). The absorbance is read at […].
B16F10 are murine melanoma cells, a cell line able to produce melanin and considered as an accurate model to assess melanogenesis inhibition. Cells were seeded at 5.10^4 cells/well in a P24 well plate and stimulated by 100 nM of α-MSH, the melanin-stimulating hormone. […] 48 h later, according to […] & EBERLE (Analytical Biochemistry, vol. 159(1), p: 191-7, 1986), the amount of melanin released in the medium was spectrophotometrically measured at 405 nm and normalised to the protein content.

The subject of data set [3] is mushroom tyrosinase (DHICA oxidase activity). Briefly: DHICA oxidase-inhibiting activity by MBTH assay. The class given is biochemical, Agaricus bisporus. As to conditions: DHICA substrate 0.25 mM. The method, then:
as §1
DHICA is used as substrate at 0.25 mM. MBTH was obtained from Alfa Aesar and DHICA was prepared according to […] & ITO, (Anal. Biochem., vol. 170(2), p: 335-40, 1988). Here, the MBTH method was used. This method consists to visualize the production of hydrazone-quinone adduct by spectrophotometry. The principle is that MBTH captures the indole-quinone which was generated by the oxidation of dihydroxyindole compounds. DHICA is converted to indole-5,6-quinone-2-carboxylic acid by the DHICA oxidase activity of mushroom tyrosinase, the indole product is trapped by MBTH and the complex formation can be detected at 492 nm (OLIVARES et al, Biochem. J., vol. 354, p: 131-139, 2001). • c) The DHICA oxidase inhibiting activity using mushroom tyrosinase was assayed in vitro. The procedure is the same as described by WINDER & HARRIS (Eur. J. Biochem., vol. 198(2), p: 317-26, 1991) for DOPA oxidase with minor modifications. Purification of the fractions
The experimental conditions are the same as previously mentioned. DHICA was used as substrate at 0.25 mM.

Data set [4] relates to B16F10 cells. Briefly: Cell viability assay (MTT). The data set is classed as cell-based, murine. As to conditions: 42.1 μM. The procedure:
as §2
The evaluation of B16F10 cells survival relies on the reduction of the tetrazolium ring of water soluble MTT (3-[4,5-dimethylthiazol-2-yl]-2,5-diphenyltetrazolium bromide; Sigma Aldrich) into insoluble purple formazan crystals by the mitochondrial succinate dehydrogenase enzyme. The production of formazan directly reflects the number of living […] cells. B16F10 cells were seeded at 25000 per well in a 96-well plate and incubated in standard culture condition. […] Then, the supernatant was removed and replace by 50 μl of 0.5 mg/ml of MTT solution. The cells were exposed to MTT for 2 h. Finally, each well was washed by PBS1X and the crystals contained in wells are solubilized by adding 100 μl of DMSO. After briefly shaked the plate, the absorbance is measured at 600 nm.

Data set [5] concerns B16F10 cells. Briefly: LDH cell-based assay (cytotoxicity). On the set-up: species or system murine. The settings on record: 42.1 μM.
The test system of another data set is tyrosinase. The class given is cell-based, murine. The settings on record: α-MSH stimulated B16F10 cells, FIG. 16.
The test system of a further data set is TRP1. Briefly: Western blot analysis of TRP1 expression. The data set is classed as cell-based, murine. As to conditions: α-MSH stimulated B16F10 cells, FIG. 16. The method, then:
Cells were seeded at 1.10^6 cells/dish and cultivated in n-dish as previously described. After trypsination, the pelled were homogenized in a solution containing Sodium Dodecyl Sulphate (SDS) and were boiled 5 min at 96° C. to denature the proteins. Protein extracts were separated via a 10% SDS-PAGE for 1 h at 200 V and transferred onto a polyvinylidene difluoride membrane (GE healthcare Europe, Vélizy-villacoublay, France). The membranes were blocked overnight with 5% non-fat skim milk in a Tris-buffered saline solution containing 0.1% Tween. Membranes were incubated for 1 h at 37° C. with specific antibody against tyrosinase, TRP1 or MITF (C-19; G-17; N-15, 1:200 for Tyrosinase and TRP1 and 1:100 for MITF, Santa Cruz, Heidelberg, Germany) and actin as a control (C-11, 1:200, Santa Cruz). Membranes were incubated with secondary antibody coupled to horseradish peroxidase (HRP) for 2 h at room temperature (anti-goat 1:2500 for tyrosinase, TRP1 and MITF (ab 97120, Abcam, Paris, France) and anti-rabbit 1:2500 for actin (NA 934V, GE Healthcare)). […] Pre-stained protein markers were used for molecular weight.
To explore the mechanism of action of Argiotoxin in melanogenesis processes, we assess its ability to regulate the protein expression of two enzymes, the tyrosinase and TRP1 which is implicated in the biosynthesis of black/brown pigments specifically. […]
For orientation: Immunoblotting shows a protein as a band on a membrane.

mushroom tyrosinase (DOPA oxidase activity), sequence (C7FF04 1-392): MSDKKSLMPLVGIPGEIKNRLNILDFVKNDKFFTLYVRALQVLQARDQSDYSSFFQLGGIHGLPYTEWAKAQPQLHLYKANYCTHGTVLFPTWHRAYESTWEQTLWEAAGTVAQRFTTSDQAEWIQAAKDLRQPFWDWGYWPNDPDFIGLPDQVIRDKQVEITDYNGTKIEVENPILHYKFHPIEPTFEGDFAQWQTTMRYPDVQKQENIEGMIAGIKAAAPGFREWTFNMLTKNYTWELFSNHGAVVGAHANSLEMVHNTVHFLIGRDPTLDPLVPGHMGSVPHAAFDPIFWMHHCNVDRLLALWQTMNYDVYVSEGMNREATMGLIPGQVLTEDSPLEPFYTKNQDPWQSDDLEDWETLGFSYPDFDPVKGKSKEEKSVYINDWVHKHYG
mushroom tyrosinase (DOPA oxidase activity), sequence (G1K3P4 1-150 partner): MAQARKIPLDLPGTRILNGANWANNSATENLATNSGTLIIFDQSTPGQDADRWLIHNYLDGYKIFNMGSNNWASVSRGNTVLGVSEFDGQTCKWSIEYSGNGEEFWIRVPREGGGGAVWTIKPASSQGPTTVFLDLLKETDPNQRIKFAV

As usually defined, the IC50 is the concentration that gives 50% inhibition. With `O=C(O)Cc1ccc(O)cc1O` [2,4-DHPAA], the IC50 was roughly 6000 µM in data set [1] and roughly 5 µM in the data set on B16F10 cells [2] (B16F10, 100 nM α-MSH, 48 h treatment). Further, in data set [1] (suggested from dose-response), the “type of inhibition of DOPA oxidase activity” value was “competitive inhibitor”.

For the compound `N=C(N)NCCC[C@H](N)C(=O)NCCCNCCCNCCCCCNC(=O)[C@H](CC(N)=O)NC(=O)Cc1ccc(O)cc1O` [Argiotoxin, Argiotoxin-636], the “inhibition of DHICA oxidase activity” value in data set [3] is listed as “dose-dependent inhibition is visible up to 100 μM; also recorded: dose-dependent manner up to 75 μM”. For the same compound, in the data set on B16F10 cells [4], the “cell death (MTT)” value is on record as “neither cell death nor cytotoxicity”. Also, the “cytotoxicity (LDH)” value with B16F10 cells [5] is “neither cell death nor cytotoxicity”. In addition, the “fold higher activity on the cellular assay compared with DHPA” value in the data set with B16F10 cells [2] (B16F10 melanogenesis) came to 100 fold. Besides, the IC50 with B16F10 cells [2] (Mus musculus, B16-F10, 48 h) is roughly 0.01 µM. For the same compound, the “expression of tyrosinase protein” value with tyrosinase is “significant inhibition”. Moreover, the “expression of TRP1 protein” value in the data set with TRP1 was “significant inhibition”.

With `O=c1cc(CO)occ1O` [Kojic acid, Kojic Acid, reference compound], the IC50 in the data set on B16F10 cells [2] (Mus musculus, B16-F10, B16F10, 100 nM α-MSH, 48 h treatment) was roughly 5 µM. The “expression of TRP1 protein” value in the data set on TRP1 is given as “faintly decreases”.
